Measured values reported in US8513421B2, “Substituted hydroxamic acids and uses thereof” (Millennium Pharmaceuticals, Inc., priority 2010, dated 2013).

Molecular target: T1, purified human HDAC6 (Homo sapiens, UniProt Q9UBN7)
T1 construct: purchased BPS Bioscience 5006
T1 sequence (Q9UBN7 1-1215): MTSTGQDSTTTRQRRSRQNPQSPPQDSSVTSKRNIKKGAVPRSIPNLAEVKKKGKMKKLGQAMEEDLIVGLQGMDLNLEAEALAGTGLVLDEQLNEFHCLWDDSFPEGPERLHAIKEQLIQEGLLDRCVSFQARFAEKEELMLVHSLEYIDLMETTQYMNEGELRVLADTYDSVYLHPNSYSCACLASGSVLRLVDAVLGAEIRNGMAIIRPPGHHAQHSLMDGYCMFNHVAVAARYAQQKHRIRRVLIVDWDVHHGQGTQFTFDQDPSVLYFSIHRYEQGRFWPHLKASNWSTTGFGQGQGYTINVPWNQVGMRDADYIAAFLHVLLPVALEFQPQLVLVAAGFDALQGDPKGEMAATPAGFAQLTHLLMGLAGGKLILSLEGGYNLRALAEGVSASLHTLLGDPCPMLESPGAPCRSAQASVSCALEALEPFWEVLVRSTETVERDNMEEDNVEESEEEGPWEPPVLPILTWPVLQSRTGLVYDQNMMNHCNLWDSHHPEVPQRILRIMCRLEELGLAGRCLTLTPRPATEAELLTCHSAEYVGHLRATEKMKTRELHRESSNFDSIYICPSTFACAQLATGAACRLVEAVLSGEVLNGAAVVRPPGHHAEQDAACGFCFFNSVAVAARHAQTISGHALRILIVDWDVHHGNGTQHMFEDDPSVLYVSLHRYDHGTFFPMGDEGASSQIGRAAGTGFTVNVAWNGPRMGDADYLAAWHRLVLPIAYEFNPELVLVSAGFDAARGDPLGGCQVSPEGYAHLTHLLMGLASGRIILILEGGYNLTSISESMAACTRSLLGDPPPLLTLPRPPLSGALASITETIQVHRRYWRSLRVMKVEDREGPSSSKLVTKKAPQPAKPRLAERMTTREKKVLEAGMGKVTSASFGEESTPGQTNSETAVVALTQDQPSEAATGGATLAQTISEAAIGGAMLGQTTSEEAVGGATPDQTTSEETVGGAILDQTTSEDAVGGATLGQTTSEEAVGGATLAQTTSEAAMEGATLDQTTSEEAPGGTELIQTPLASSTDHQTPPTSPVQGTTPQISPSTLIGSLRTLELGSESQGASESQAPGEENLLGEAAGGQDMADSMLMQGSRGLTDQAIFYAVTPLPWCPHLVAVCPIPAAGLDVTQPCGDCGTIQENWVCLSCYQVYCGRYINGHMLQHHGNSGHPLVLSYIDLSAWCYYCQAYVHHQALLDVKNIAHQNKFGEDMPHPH
Experiment: HDAC6 Enzyme Assay
Format: biochemical
Settings: purified human HDAC6, substrate Ac-Arg-Gly-Lys(Ac)-AMC, 1 hour at 30° C.
Experimental: To measure the inhibition of HDAC6 activity, purified human HDAC6 (BPS Bioscience; Cat. No. 5006) is incubated with substrate Ac-Arg-Gly-Lys(Ac)-AMC peptide (Bachem Biosciences; Cat. No. I-1925) for 1 hour at 30° C. in the presence of test compounds or vehicle DMSO control. The reaction is stopped with the HDAC inhibitor trichostatin A (Sigma; Cat. No. T8552) and the amount of Arg-Gly-Lys-AMC generated is quantitated by digestion with trypsin (Sigma; Cat. No. T1426) and subsequent measurement of the amount of AMC released using a fluorescent plate reader (Pherastar; BMG Technologies) set at Ex 340 nm and Em 460 nm. Concentration response curves are generated by calculating the fluorescence increase in test compound-treated samples relative to DMSO-treated controls, and enzyme inhibition (IC50) values are determined from those curves.

SMILES | IC50
O=C(NO)c1cnc2ccc(-c3ccc(Cl)cc3)cc2c1 [Compound I-27, 6-(4-chlorophenyl)-N-hydroxyquinoline-3-carboxamide] | 0.1 to 0.5 µM
COc1ccc2ncc(C(=O)NO)cc2c1 [Compound I-19, N-hydroxy-6-methoxyquinoline-3-carboxamide] | > 0.5 µM
O=C(NO)c1cnc2cc(Nc3ccccc3)ccc2c1 [Compound I-24, 7-anilino-N-hydroxyquinoline-3-carboxamide] | < 0.1 µM
O=C(NO)c1cnc2cc(-c3ccc(Cl)cc3)ccc2c1 [Compound I-25, 7-(4-chlorophenyl)-N-hydroxyquinoline-3-carboxamide] | 0.1 to 0.5 µM
O=C(Nc1ccccc1)Nc1ccc2ncc(C(=O)NO)cc2c1 [Compound I-14, 6-[(anilinocarbonyl)amino]-N-hydroxyquinoline-3-carboxamide] | < 0.1 µM
O=C(NO)c1cnc2cc(Oc3ccnc(NC(=O)C4CC4)c3)ccc2c1 [Compound I-23, 7-({2-[(cyclopropylcarbonyl)amino]pyridin-4-yl}oxy)-N-hydroxyquinoline-3-carboxamide] | 0.1 to 0.5 µM
COc1ccc(C(=O)Nc2ccc3cc(C(=O)NO)cnc3c2)cc1 [Compound I-5, N-hydroxy-7-[(4-methoxybenzoyl)amino]quinoline-3-carboxamide] | 0.1 to 0.5 µM
COc1ccc2cc(C(=O)NO)cnc2c1 [Compound I-3, N-hydroxy-7-methoxyquinoline-3-carboxamide] | > 0.5 µM
O=C(NO)c1cnc2ccc(Oc3ccc(Cl)cc3)cc2c1 [Compound I-29, 6-(4-chlorophenoxy)-N-hydroxyquinoline-3-carboxamide] | 0.1 to 0.5 µM
O=C(NO)c1cnc2ccc(Oc3cccc(Cl)c3)cc2c1 [Compound I-2, 6-(3-chlorophenoxy)-N-hydroxyquinoline-3-carboxamide] | 0.1 to 0.5 µM
O=C(NO)c1cnc2cc(Oc3ccc(Cl)cc3)ccc2c1 [Compound I-16, 7-(4-chlorophenoxy)-N-hydroxyquinoline-3-carboxamide] | 0.1 to 0.5 µM
CC(C)(C)OC(=O)Nc1ccc2ncc(C(=O)NO)cc2c1 [Compound I-21, tert-butyl {3-[(hydroxyamino)carbonyl]quinolin-6-yl}carbamate] | < 0.1 µM
O=C(NO)c1cnc2ccc(NC(=O)C3CC3)cc2c1 [Compound I-6, 6-[(cyclopropylcarbonyl)amino]-N-hydroxyquinoline-3-carboxamide] | < 0.1 µM
O=C(NO)c1cnc2ccc(Oc3ccncc3)cc2c1 [Compound I-32, N-hydroxy-6-(pyridin-4-yloxy)quinoline-3-carboxamide] | 0.1 to 0.5 µM
O=C(NO)c1cnc2ccc(Nc3ccncc3)cc2c1 [Compound I-9, N-hydroxy-6-(pyridin-4-ylamino)quinoline-3-carboxamide] | 0.1 to 0.5 µM
Cn1cc(-c2cc(C(=O)Nc3ccc4ncc(C(=O)NO)cc4c3)cc(C(F)(F)F)c2)cn1 [Compound I-8, N-hydroxy-6-{[3-(1-methyl-1H-pyrazol-4-yl)-5-(trifluoromethyl)benzoyl]amino}quinoline-3-carboxamide] | < 0.1 µM
COc1ccc(C(=O)Nc2ccc3ncc(C(=O)NO)cc3c2)cc1 [Compound I-22, N-hydroxy-6-[(4-methoxybenzoyl)amino]quinoline-3-carboxamide] | < 0.1 µM

SMILES | IC50
CC(C)(C)OC(=O)Nc1ccc2cc(C(=O)NO)cnc2c1 [Compound I-10, tert-butyl {3-[(hydroxyamino)carbonyl]quinolin-7-yl}carbamate] | < 0.1 µM
CN(C)Cc1cc(C(=O)Nc2ccc3ncc(C(=O)NO)cc3c2)cc(C(F)(F)F)c1 [Compound I-1, 6-{[3-[(dimethylamino)methyl]-5-(trifluoromethyl)benzoyl]amino}-N-hydroxyquinoline-3-carboxamide] | 0.1 to 0.5 µM
O=C(NO)c1cnc2cc(Oc3cccc(Cl)c3)ccc2c1 [Compound I-15, 7-(3-chlorophenoxy)-N-hydroxyquinoline-3-carboxamide] | 0.1 to 0.5 µM
O=C(NO)c1cnc2ccc(NCc3ccccc3)cc2c1 [Compound I-17, 6-(benzylamino)-N-hydroxyquinoline-3-carboxamide] | < 0.1 µM
O=C1CCc2c(Oc3ccc4ncc(C(=O)NO)cc4c3)ccnc2N1 [Compound I-26, N-hydroxy-6-[(7-oxo-5,6,7,8-tetrahydro-1,8-naphthyridin-4-yl)oxy]quinoline-3-carboxamide] | 0.1 to 0.5 µM
O=C(NO)c1cnc2cc(Nc3ccncc3)ccc2c1 [Compound I-28, N-hydroxy-7-(pyridin-4-ylamino)quinoline-3-carboxamide] | < 0.1 µM
O=C(NO)c1cnc2ccc(Nc3ccccc3)cc2c1 [Compound I-7, 6-anilino-N-hydroxyquinoline-3-carboxamide] | 0.1 to 0.5 µM
O=C(NO)c1cnc2ccc(Oc3ccnc(NC(=O)C4CC4)c3)cc2c1 [Compound I-31, 6-({2-[(cyclopropylcarbonyl)amino]pyridin-4-yl}oxy)-N-hydroxyquinoline-3-carboxamide] | < 0.1 µM
O=C(NO)c1cnc2cc(-c3ccncc3)ccc2c1 [Compound I-33, N-hydroxy-7-pyridin-4-ylquinoline-3-carboxamide] | 0.1 to 0.5 µM
O=C(NO)c1cnc2ccc(Oc3ccccc3)cc2c1 [Compound I-12, N-hydroxy-6-phenoxyquinoline-3-carboxamide] | 0.1 to 0.5 µM
O=C(NO)c1cnc2ccc(NS(=O)(=O)c3ccccc3)cc2c1 [Compound I-13, N-hydroxy-6-[(phenylsulfonyl)amino]quinoline-3-carboxamide] | < 0.1 µM
O=C1CCc2c(Oc3ccc4cc(C(=O)NO)cnc4c3)ccnc2N1 [Compound I-4, N-hydroxy-7-[(7-oxo-5,6,7,8-tetrahydro-1,8-naphthyridin-4-yl)oxy]quinoline-3-carboxamide] | 0.1 to 0.5 µM
O=C(NO)c1cnc2ccc(CCc3ccccc3)cc2c1 [Compound I-18, N-hydroxy-6-(2-phenylethyl)quinoline-3-carboxamide] | < 0.1 µM
O=C(NO)c1cnc2ccc(Nc3ccc(Cl)cc3)cc2c1 [Compound I-30, 6-[(4-chlorophenyl)amino]-N-hydroxyquinoline-3-carboxamide] | < 0.1 µM
O=C(NO)c1cnc2ccc(-c3ccncc3)cc2c1 [Compound I-11, N-hydroxy-6-pyridin-4-ylquinoline-3-carboxamide] | < 0.1 µM
O=C(NO)c1cnc2ccc(NC(=O)c3ccccc3)cc2c1 [Compound I-20, 6-(benzoylamino)-N-hydroxyquinoline-3-carboxamide] | < 0.1 µM
